Data from ChEMBL document CHEMBL5523756, “Molecular Transformers: Adaptive Multitarget Ligands for Esterase-Induced Transition from Analgesics to Anesthetics” (J Med Chem, 2024).

Experiments:
[1] = Toxicity in Sprague-Dawley rat assessed as effect on creatinine level at 19 mg/kg administered as continuous infusion followed by maintenance at 3.25 mg/kg/min for 0 to 20 mins, 2.5 mg/kg/min for 20 to 30 mins and 2 mg/kg/min for 30 to 60 mins; format: organism-based; settings: in vivo, other, 1 h, route par
[2] = Toxicity in Sprague-Dawley rat assessed as effect on respiratory frequency at 19 mg/kg administered as continuous infusion followed by maintenance at 3.25 mg/kg/min for 0 to 20 mins, 2.5 mg/kg/min for 20 to 30 mins and 2 mg/kg/min for 30 to 60 mins and measured every 5 mins for 60 mins by whole-body plethysmography; format: organism-based; settings: in vivo, other, 1 h, route par
[3] = biological target: T1, Sodium channel protein type 9 subunit alpha (Homo sapiens, UniProt Q15858); test: Inhibition of Nav1.7 channel (unknown origin) at half inactivation state at -120 mV conditioning pulse by voltage clamp electrophysiological recording
[4] = biological target: T1, Sodium channel protein type 9 subunit alpha; test: Inhibition of Nav1.7 channel (unknown origin) at resting state at -120 mV conditioning pulse by voltage clamp electrophysiological recording

T1 sequence (Q15858 whole entry): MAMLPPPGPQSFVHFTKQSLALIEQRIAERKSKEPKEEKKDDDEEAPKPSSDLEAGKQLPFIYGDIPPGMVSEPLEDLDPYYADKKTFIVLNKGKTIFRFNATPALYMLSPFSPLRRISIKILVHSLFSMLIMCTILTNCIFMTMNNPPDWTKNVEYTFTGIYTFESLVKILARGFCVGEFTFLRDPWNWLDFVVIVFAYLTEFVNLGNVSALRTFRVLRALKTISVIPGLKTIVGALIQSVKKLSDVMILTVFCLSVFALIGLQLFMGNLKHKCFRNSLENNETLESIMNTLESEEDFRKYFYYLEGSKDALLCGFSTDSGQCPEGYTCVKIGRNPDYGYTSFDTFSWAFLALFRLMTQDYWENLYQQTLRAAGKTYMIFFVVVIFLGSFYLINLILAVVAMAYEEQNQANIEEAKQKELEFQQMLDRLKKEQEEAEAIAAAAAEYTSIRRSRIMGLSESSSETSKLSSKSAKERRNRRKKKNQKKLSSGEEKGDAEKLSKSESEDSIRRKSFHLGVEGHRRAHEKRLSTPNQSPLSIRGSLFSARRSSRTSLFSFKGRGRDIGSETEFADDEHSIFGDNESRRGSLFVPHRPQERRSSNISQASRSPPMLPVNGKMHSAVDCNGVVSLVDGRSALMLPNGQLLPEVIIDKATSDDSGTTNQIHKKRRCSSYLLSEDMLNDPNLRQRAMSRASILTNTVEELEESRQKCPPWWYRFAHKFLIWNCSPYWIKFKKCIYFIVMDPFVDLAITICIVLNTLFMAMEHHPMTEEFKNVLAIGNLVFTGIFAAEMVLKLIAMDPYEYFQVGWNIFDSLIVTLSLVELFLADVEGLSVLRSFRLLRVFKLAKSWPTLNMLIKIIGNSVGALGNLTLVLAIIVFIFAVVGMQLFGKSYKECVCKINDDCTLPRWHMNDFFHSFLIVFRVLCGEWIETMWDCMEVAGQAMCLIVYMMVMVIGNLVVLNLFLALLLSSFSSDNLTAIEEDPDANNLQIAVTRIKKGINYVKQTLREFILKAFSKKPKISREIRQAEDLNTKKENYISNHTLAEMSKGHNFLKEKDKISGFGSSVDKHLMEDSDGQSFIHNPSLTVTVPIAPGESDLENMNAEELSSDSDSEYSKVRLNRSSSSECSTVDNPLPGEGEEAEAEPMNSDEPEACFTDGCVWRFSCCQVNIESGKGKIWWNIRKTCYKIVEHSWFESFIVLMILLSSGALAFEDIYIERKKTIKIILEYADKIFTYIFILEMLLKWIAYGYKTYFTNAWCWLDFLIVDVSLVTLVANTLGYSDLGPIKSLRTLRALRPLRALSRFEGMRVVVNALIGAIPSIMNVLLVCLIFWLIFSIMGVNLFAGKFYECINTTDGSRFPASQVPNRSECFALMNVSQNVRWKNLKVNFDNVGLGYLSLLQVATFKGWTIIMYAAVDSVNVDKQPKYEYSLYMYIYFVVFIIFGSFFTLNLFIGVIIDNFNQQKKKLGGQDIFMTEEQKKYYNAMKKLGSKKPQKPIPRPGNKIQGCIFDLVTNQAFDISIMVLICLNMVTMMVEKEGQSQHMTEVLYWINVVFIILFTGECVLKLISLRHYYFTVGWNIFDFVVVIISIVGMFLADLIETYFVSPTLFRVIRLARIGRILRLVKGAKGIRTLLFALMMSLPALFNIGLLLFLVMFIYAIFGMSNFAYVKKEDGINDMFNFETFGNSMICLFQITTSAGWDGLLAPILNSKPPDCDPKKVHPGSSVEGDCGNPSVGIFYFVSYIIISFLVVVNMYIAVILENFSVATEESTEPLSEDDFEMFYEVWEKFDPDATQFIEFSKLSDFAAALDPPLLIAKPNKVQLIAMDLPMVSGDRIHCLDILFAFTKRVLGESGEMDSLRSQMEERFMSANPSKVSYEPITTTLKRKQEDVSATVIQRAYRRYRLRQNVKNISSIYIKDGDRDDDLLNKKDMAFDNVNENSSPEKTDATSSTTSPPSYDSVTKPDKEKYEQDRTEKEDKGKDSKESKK

For `CCN(CC)CCOC(=O)Oc1c(C(C)C)cccc1C(C)C.Cl`, the Activity [1] was “Non-Toxic”, the Activity [2] was “Non-Toxic” and the IC50 [3] was 7.43 µM. The IC50 [4] was greater than 30 µM.
